Measurements reported in patent US9745261B2, “Inhibitors of the MITF molecular pathway” (THE GENERAL HOSPITAL CORPORATION, priority 2013, dated 2017).

How the values were obtained:
TRPM-1 promoter = experiment: SK-MEL-5 TRPM-1 luciferase reporter (TRPM-1 promoter activity assay); type: cell-based; conditions: Homo sapiens; SK-MEL-5 TRPM-1:luc cells, 24 hours, SteadyGlo; read-out: Target Potency IC50 (μM) TRPM1
Procedure: The TRPM1 luciferase promoter construct was transfected into the SK-MEL-5 melanoma cell line and a stable cell line was generated. This promoter is exquisitely sensitive to MITF over-expression and suppression and contains three canonical E-box motifs within the cloned promoter fragment (17). On day 0, cells were plated at 2,000 cells per well into white, opaque 384 well plates in phenol red-free media. On day 1, cells were treated with compounds or positive control for 24 hours. On day 2, 20 uL of SteadyGlo (Promega) was added per well and luminescence signal was determined with the Perkin-Elmer EnVision plate reader. Primary HTS data were analyzed in Genedata Screener Assay Analyzer. All values were normalized against DMSO treated samples and the positive control (18 μM parthenolide, CID 6473881). For the HTS, the average of two replicates was used to rank order activity and to choose compounds for retests. For dose studies, percent (%) activity was determined for each concentration and the concentration response curves (CRCs) were generated with Genedata Screener's Condoseo.
SK-MEL-5/TRPM1Luc cells were maintained in DMEM (10% FBS, 1% Pen-Strep-Glutamine, 250 ug/mL Hygromycin). […]
Day 3 • 5. […] Read on the Perkin-Elmer EnVision plate reader with ultra-sensitive luminescence (US LUM) settings for 0.5 sec per well SK-MEL-5 Cytotoxicity Assay (2084-02)

SK-MEL-5 cells = experiment: SK-MEL-5 cell cytotoxicity assay (CellTiter-Glo); type: cell-based, human; conditions: Homo sapiens, SK-MEL-5; 24 hours, CellTiter-Glo; read-out: Target Potency IC50 (μM) SKMEL5
Procedure: SK-MEL-5 cells were treated with compounds for 24 hours, and then cell viability was measured using the CellTiter-Glo Assay (Promega), a luciferase-based reagent that measures cellular ATP levels. The compounds were tested at different concentrations to determine IC50 values. Compounds that were active in the primary assay and toxic below 30 μM at 24 hours were considered for probe development. Data were normalized against DMSO in Genedata Screener's Assay Analyzer.
SK-MEL-5 cells were maintained in DMEM (10% FBS, 1% Pen-Strep-Glutamine). Cells were fluid changed every 3 days and/or split upon reaching 100% confluency. For secondary assays, cells were thawed at 4 million cells per Falcon T175 flask. After 3 days, the cells were fluid changed, after 3 more days cells were passed to a Corning Triple flask (10-15 million cells) and plated after 3 days in the triple flask.
Day 1 • 1. Plate SK-MEL-5 cells at 3,000 per well in 30 uL media (phenol red free DMEM/10% Fetal Bovine Serum/Penicillin/Streptomycin/L-Glutamine) • 2. Use Corning white 384-well, square, opaque-bottomed plates (Corning Catalog No. 8867BC)
Day 2 • 3. Pin 100 nL compound/DMSO solution (Cybi Well) into assay plates. (For HTS, required sentinel pinning with the positive control, parthenolide (6 mM)) • 4. […]
Day 3 • 5. […] Read on the Perkin-Elmer EnVision plate reader with luminescence (LUM) settings for 0.1 sec per well. […]

Adenosine A2A = biological target: T1, Adenosine A2A (Homo sapiens, UniProt P29274); experiment: Radioligand binding, Adenosine A2A
T1 construct: Eurofins Panlabs, Inc. (contract assay) 200610 (assay number)
T1 sequence (P29274 whole entry): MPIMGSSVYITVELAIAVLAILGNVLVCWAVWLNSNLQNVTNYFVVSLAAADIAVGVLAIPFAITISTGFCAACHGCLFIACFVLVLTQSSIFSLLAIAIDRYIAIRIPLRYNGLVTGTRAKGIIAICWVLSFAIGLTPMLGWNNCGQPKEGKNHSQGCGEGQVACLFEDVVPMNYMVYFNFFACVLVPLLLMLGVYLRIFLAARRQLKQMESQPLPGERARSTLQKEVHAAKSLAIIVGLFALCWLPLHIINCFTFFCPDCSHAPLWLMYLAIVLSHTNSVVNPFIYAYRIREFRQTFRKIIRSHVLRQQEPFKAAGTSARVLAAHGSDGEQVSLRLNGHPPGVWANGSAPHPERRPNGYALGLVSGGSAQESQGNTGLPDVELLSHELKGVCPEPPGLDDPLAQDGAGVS

Muscarinic M3 = biological target: T2, Muscarinic M3 (Homo sapiens, UniProt P20309); experiment: Radioligand binding, Muscarinic M3
T2 construct: Eurofins Panlabs, Inc
T2 sequence (P20309 whole entry): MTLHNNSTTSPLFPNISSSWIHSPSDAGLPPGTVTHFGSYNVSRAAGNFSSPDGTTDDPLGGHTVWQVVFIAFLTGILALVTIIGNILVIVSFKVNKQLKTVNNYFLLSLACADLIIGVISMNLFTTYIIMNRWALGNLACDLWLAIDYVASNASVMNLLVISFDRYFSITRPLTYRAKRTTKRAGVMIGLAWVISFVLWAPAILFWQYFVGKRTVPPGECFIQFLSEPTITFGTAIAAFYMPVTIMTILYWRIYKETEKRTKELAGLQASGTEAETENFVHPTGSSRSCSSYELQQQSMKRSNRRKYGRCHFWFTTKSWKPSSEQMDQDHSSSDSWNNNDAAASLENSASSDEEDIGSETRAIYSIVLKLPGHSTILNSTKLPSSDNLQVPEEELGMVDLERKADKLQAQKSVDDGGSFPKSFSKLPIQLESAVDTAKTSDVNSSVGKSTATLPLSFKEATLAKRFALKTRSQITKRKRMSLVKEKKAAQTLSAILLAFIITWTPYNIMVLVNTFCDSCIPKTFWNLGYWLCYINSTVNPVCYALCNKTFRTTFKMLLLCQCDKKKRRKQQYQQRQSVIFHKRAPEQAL

Prostanoid EP4 = biological target: T3, Prostanoid EP4 (Homo sapiens, UniProt P35408); experiment: Radioligand binding, Prostanoid EP4
T3 construct: Eurofins Panlabs
T3 sequence (P35408 whole entry): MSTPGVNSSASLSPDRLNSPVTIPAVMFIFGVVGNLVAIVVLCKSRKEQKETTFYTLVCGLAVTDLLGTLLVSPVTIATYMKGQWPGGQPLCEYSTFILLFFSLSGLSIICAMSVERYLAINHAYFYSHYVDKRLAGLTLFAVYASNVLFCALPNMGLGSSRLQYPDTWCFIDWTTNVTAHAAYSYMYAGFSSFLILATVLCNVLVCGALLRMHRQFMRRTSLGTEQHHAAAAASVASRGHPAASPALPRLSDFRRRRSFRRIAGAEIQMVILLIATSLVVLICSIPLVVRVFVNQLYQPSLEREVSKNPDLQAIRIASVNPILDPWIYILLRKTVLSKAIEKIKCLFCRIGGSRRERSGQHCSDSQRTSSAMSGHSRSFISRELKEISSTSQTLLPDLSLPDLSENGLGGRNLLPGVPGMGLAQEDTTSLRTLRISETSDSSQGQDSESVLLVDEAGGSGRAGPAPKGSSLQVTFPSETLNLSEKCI

Structure (SMILES)	IC50 (TRPM-1 promoter) [µM]	IC50 (SK-MEL-5 cells) [µM]	inhibition at 10 µM (Adenosine A2A) [%]	inhibition at 10 µM (Muscarinic M3) [%]	inhibition at 10 µM (Prostanoid EP4) [%]
NS(=O)(=O)c1ccc(NC2=CC(=O)c3ccccc3C2=O)cc1 [4-((1,4-dioxo-1,4-dihydronaphthalen-2-yl)amino)benzenesulfonamide]	1.2	0.75			
NS(=O)(=O)c1ccc(NC2=CC(=O)c3ccccc3C2=O)cc1 [Example 1, 4-((1,4-Dioxo-1,4-dihydronaphthalen-2-yl)amino)benzenesulfonamide]			50	22	11
